“And” between values parts separate entries of the source, which are not always exact repeats. Equal values may be shown once.
Key:
APP/PS1 mice = assay: Aβ in Lamp1+ phagolysosomes of microglia (Supplementary Fig 5a); type: in vivo, mouse; conditions: N-AS vs vehicle APP/PS1
Protocol: Thioflavin S (Sigma-Aldrich) staining was carried out according to previously described procedures. We used 6E10 (mouse, 1:100, Signet, SIG39300), anti-20G10 (mouse, 1:1000, provided by D. R. Howlett, GlaxoSmithKline, Harlow, Essex, UK) for Aβ42, anti-G30 (rabbit, 1:1000, provided by D. R. Howlett) for Aβ40, SMA (mouse, 1:400, Sigma-Aldrich, A2547), AT8 (mouse, 1:500, Thermo Fisher Scientific, MN1020), Caspase-3 (mouse, 1:200, Novus Biologicals, NB100-56708), ac-S565 (rabbit, 1:100), COX2 (mouse, 1:250, Thermo Fisher Scientific, 35-8200), Iba1 (rabbit, 1:500, Wako, 019-19941 and goat, Abcam, ab5076), NeuN (mouse, 1:500, Millipore, MAB177), GFAP (rabbit, 1:500, Dako, N1506 and chicken, 1:500, Abcam, ab4674), and Lamp1 (mouse, 1:200, Abcam, ab24170). The sections were analyzed with a laser-scanning confocal microscope (FV3000; Olympus) or with a BX51 microscope (Olympus). MetaMorph software (Molecular Devices) was used to quantification. Three-dimensional reconstruction of microglia was recorded and analyzed using IMARIS software (Bitplane)[11]. For the analysis of age-dependent microglial COX2^+ CX3CR1^+ cells in WT and APP/PS1 mice, COX2 (rabbit, 1:100, Abcam, ab15191) and CX3CR1 (mouse, 1:100, BioLegend, 149008) antibody were used and the images were acquired on Alexa 488 and APC Channel with performed using Operetta CLS and Analysis Software 4.5 (Perkin-Elmer). […]

neuron = assay: sphingosine level in primary cells (UPLC); type: cell-based, C57BL/6 mice; conditions: Ab 10mM, replicates
Protocol: To confirm the generation and roles of N-AS in neurons, cells from E18 C57BL/6 mice were prepared as previously described. Cortices were dissected and then dissociated followed by incubation in papain (Worthington) at 37 °C for 15 min. Neurons were plated on poly-L-lysine-coated coverslips with neuronal culture medium, serum-free Neurobasal medium (Gibco) containing 2% B27 supplements (Gibco), 1 mM Glutamax supplement (Gibco), and 100 U ml^−1 streptomycin/ 100 U ml^−1 penicillin (Gibco) at 37 °C in a humidified atmosphere of 5% CO2. […] Primary astrocyte cultures were prepared from C57BL/6 mice as described previously. In brief, after removal of the meninges, postnatal day 7 (P7) mouse brain tissues were minced and incubated in a rocking water bath at 37 °C for 30 min in the presence of 0.25% trypsin-EDTA (Sigma-Aldrich). […] The human microglia treated with Aβ 1–42 and/or zileuton was incubated with N-AS (2.5 μM, 2 h, Sigma-Aldrich, 01912), and were analyzed for the generation and roles of N-AS.
To quantify the sphingosine levels, the dried lipid extract was resuspended in 0.2% Igepal CA-630. […] The fluorescent sphingosine was monitored using a model 474 scanning fluorescence detector (Waters). Quantification of the sphingosine was calculated from sphingosine calibration curves using the Waters Millennium software.

Row | Molecule | microglia containing co-stained lysosomes and Aβ (APP/PS1 mice) | sphingosine (Fig 3f) (neuron)
1 | CCCCCCCCCCCCC/C=C/[C@@H](O)[C@H](CO)NC(C)=O [N-AS, N-((2S,3R,E)-1,3-Dihydroxyoctadec-4-en-2-yl)acetamide] | increased number of microglia containing co-stained lysosomes and Aβ | 
2 | Ab: Aβ 1–42 (Invitrogen, 03112) used to induce an AD environment in cells |  | 0.1262 and 0.1156 and 0.1288 and 0.1301 and 0.1222 and 0.1295
